# In patent US20030113330A1, “Methods for treating pulmonary fibrosis” (priority 1999, published 2003):
# Where no end group is shown, it is not given here. The star is where a group is joined. CH2Cl = ClC*; CH2F = FC*
# Key:
# primary rat AEC [1] = conditions: captopril 500 ng/ml, saralasin 50 ug/ml, Losartan 5 pg/ml; amiodarone 2.5 ug/ml for chelerythrine, orthovanadate
# Procedure: The human lung adenocarcinoma cell line A549 (ATCC) was cultured in Ham's F12 medium supplemented with 10% fetal bovine serum (FBS). Primary alveolar epithelial cells were isolated from adult male Wistar rats. The primary cells were studied at day two of culture, a time at which they are type II cell-like by accepted morphologic and biochemical criteria. […] All cells were seeded in 24-well or 6-well chambers, and all experiments were conducted at subconfluent densities of 80-90% in serum-free Ham's F12 medium. Test reagents were diluted with Ham's F12 medium and were applied for 20 hours at 37C. in a 5% CO2 incubator.
# Apoptotic cells were detected using propidium iodide (PI) following digestion of ethanol-fixed cells with DNAse-free RNAse in PBS containing 5 ug/ml PI. […] In replicate culture vessels, necrosis was detected as the loss of exclusion of PI after application of the vital dye directly to the cell culture medium at 5 ug/ml final concentration. Red fluorescent (PI-POSITIVE) cells (>570 nm) were scored over the subsequent hour as a percentage of the total cells in any given field. A minimum of 4 separate fields were scored in each of three separate culture vessels per experiment condition; all experiments were performed at least twice and the data were compiled. Although all necrotic cells are PI-positive, some apoptotic cells may also take up the dye but these comprise a minor fraction of the total dead cell population.
# In all assays, detached cells were retained by centrifugation of the culture vessel at 300×g for 10 minutes with a centrifuge rotor designed for culture plates. For detection of necrosis (dye exclusion of PI), the PI was added directly to the cell culture medium immediately before centrifugation of the culture vessel. For detection of apoptosis, ethanol was added directly to the cell culture medium to a final concentration of 70% immediately before the centrifugation. Afterward, the ethanol was carefully removed and the total cell population (attached plus sedimented detached cells) were stained with PI as described above.
# primary rat AEC [2] = assay: Angiotensin II-induced apoptosis in primary rat AEC (nuclear fragmentation, PI); type: cell-based; conditions: ANGII 5.0 uM; saralasin 50 ug/ml, lisinopril 500 ng/ml
# Text: Cell Culture. The human lung adenocarcinoma cell line A549 was obtained from American Type Culture Collection and cultured in Ham's F12 medium supplemented with 10% fetal bovine serum (FBS). Primary alveolar epithelial cells were isolated from adult male Wistar rats as described in Uhal et al., Am. J. Physiol. Suppl. (Oct.) 261:110-117 (1991) and Uhal et al., Am. J. Physiol. 269:L819-L828 (1995). The primary cells were studied at day two of culture, a time at which they are type II cell-like by accepted morphologic and biochemical criteria, see Uhal, Am. J. Physiol. 272:L1031-L1045 (1997). […] J. Physiol. Suppl. (October) 261:110-117 (1991). All cells were seeded in 24-well or 6-well chambers, and all experiments were conducted at subconfluent densities of 80-90% in serum-free Ham's F12 medium. Test reagents were diluted with Ham's F12 medium and were applied for 20 h at 37° C. in a 5% CO2 incubator.
# Detection of Apoptosis. Detection of apoptotic cells with propidium iodide (PI) was conducted as described in Uhal, et al., Am. J. Physiol. 275:L1013-1017 (1998) following digestion of ethanol-fixed cells with DNAse-free RNAse in PBS containing 5 ug/ml PI. Assay of Annexin V binding by flow cytometry was performed essentially as described for human lung fibroblasts in Uhal, et al., Am. J. Physiol. 275:L998-L1005 (1998) after trypsinization of cells from culture vessels. Assay of Caspase-3 activity was performed on viable suspension cultures as reported in Uhal, et al., Am. J. Physiol. 275:L1013-1017 (1998). In all assays, detached cells were retained by centrifugation of the culture vessels during fixation with 70% ethanol, or by retention of culture media and recovery by centrifugation before assay.
# For microscopy, cells were cultured on glass cover slips, incubated with test reagents and fixed with 70% ethanol. The fixed cells were immunolabeled overnight at 4° C. with monoclonal antibodies to cytokeratins 7 and 19 (Chemicon International, Temecula, Calif.), and then for one hour at 37° C. with anti-mouse IgG-rhodamine and DNAse-free RNAse (Boehringer Mannheim, Indianapolis, Ind.) The cover slips were then rinsed in distilled water three times and mounted under Fluoromount Solution (Southern Biotechnology Associates, Birmingham, Ala.) containing 5 ug/ml propidium iodide. Photomicroscopy was performed as described in Uhal, et al., Am. J. Physiol. 275:L1013-1017 (1998).
# Apoptosis in alveolar epithelial cells was quantitated by fluorescence detection of chromatin condensation and nuclear fragmentation in alcohol-fixed cells stained with propidium iodide. See Uhal, et al., Am. J. Physiol. 275:L1013-1017 (1998). […] After 20 h, the culture vessel was centrifuged to retain detached cells and labeled with anticytokeratin antibodies and propidium iodide. […] Double labeling with PI and monoclonal antibodies to cytokeratins 7 and 19 identified cells with both apoptotic nuclear morphology and positive anticytokeratin immunoreactivity.
# adult male Wistar rats = conditions: 8 U/kg intratracheal, 14 days
# Procedure: Adult male Wistar rats were given intratracheal instillations of 8 U/kg bleomycin sulfate (BLEO) or sterile saline. […] Lung fibrosis was assessed by picrosirius red (PR) quantitation of lung collagen and by hydroxyproline (HP) assay at 14 days after BLEO administration. At the same time point, fragmented DNA in lung epithelial cells was detected by in situ end labeling (ISEL).
# Animals and Induction of Pulmonary Fibrosis. Forty adult male Wistar rats, 175-200 grams, were divided into four groups; three groups received a single intratracheal instillation of 8 units per kilogram of bleomycin sulfate (BLEO) in sterile saline. Two days before the administration of BLEO, one group received captopril in the drinking water at a concentration of 500 mg/liter. […] Control animals (NORM) received administrations of the vehicles only.
# Immediately before sacrifice, animals were given intraperitoneal injections of sodium pentobarbital and the trachea was cannulated. The middle right lobe was ligated at the hilus, was excised distal to the ligation and was immediately frozen in liquid N2 for hydroxyproline assay of total collagen (see below). The remaining lung tissues were carefully removed and were instilled with 4% paraformaldehyde in PBS at 20 cm H2O constant pressure, then immersed in the same fixative for two hours. The fixed tissues were washed with PBS three times for 15 minutes and were then embedded in paraffin. Five-micron sections of lung were deparaffinized by passing through xylene, xylene:alcohol 1:1, 100% alcohol and 70% alcohol for 10 minutes each. Ethanol was removing by rinsing with distilled water.
# In situ end-labeling (ISEL) of fragmented DNA. ISEL was conducted by a modification of the method of Mundle et al., Cell Death and Differentiation, 1: 117-122 (1994). Briefly, ethanol was removed from deparaffinized lung sections by rinsing in distilled water for at least 10 minutes. The slides were then placed in 3% hydrogen peroxide (Sigma Chemical, St. Louis, Mo.) for 30 minutes at 20° C., rinsed with PBS, and incubated with Proteinase K (Sigma Chemical, St. Louis, Mo.) in saline sodium citrate solution (SSC) (0.3 M NaCi and 30 mM sodium citrate in water, pH 7.0) for 15 minutes at 37° C. Samples were rinsed once in water, three times in 0.15 M PBS for 4 minutes each, and then incubated in SSC at 80° C. for 20 minutes. After four rinses in PBS and four rinses in Buffer A (50 mM Tris/HCl, 5 mM MgCl, 10 mM β-mercaptoethanol and 0.005% BSA in water, pH 7.5), the sections were incubated at 18° C. for two hours with ISEL solution (0.001 mM digoxigenin-dUTP, 20 U/ml DNA Polymerase 1 and 0.01 mM each of dATP, dCTP and dGTP in Buffer A). The sections were then rinsed thoroughly five times with Buffer A and three times with PBS. Detection of incorporated dUTP was achieved by incubation for two hours at 37° C. with AP-conjugated anti-digoxigenin (Boerhinger Mannheim, Indianapolis, Ind.) at a 1:400 dilution. Bound AP-antibody complexes were detected with the Fast Blue chromogen system and the sections were mounted with Fluoromount Solution (Southern Biotechnology, Birmingham, Ala.).
# Identification of Collagen. Collagens were localized through staining of lung sections by the picrosirius red technique, see Pick et al., Am. J. Pathol. 134:365-371 (1989), which has absolute specificity for collagen. Briefly, sections deparaffinized with xylenes were rehydrated through a descending series of ethanols to distilled water. The hydrated sections were immersed in 0.2% aqueous phosphomolybdic acid for 2 minutes, rinsed in distilled water and then stained for 110 minutes with 0.1% Sirius Red F3BA (Pfal and Bauer, Stamford, Conn.) in saturated aqueous picric acid, pH 2.0. The sections were washed for 2 minutes in 0.01 N HCl, rinsed for 45 seconds in 70% ethanol, dehydrated in three changes of absolute alcohol, cleared in xylene and mounted in a nonaqueous mounting medium.
# [3] = test system: primary alveolar epithelial cells (AEC); assay: Bleomycin-induced apoptosis of primary AEC in vitro
# Procedure: (§1) Lung Cell Isolation and Detection of Apoptosis In Vitro. Primary alveolar epithelial cells (AEC) were isolated from adult male Wistar rats as described above. The primary cells were studied at day two of culture, a time at which they are type II cell-like by accepted morphologic and biochemical criteria, see Paine et al., Am. J. Physiol. […] All cells were seeded in 24-well or 6-well chambers, and all experiments were conducted at subconfluent densities of 80-90% in serum-free Ham's F12 medium. Test reagents were diluted with Ham's F12 medium and were applied for 20 hours at 37° C. in a 5% CO2 incubator.
# (§2) Detection of apoptotic cells with propidium iodide (PI) was conducted as described above, following digestion of ethanol-fixed cells with DNAse-free RNAse in PBS containing 5 ug/ml PI.
# Apoptosis was detected as described above.
# primary rat AEC [4] = assay: Fas ligand-induced apoptosis of primary rat alveolar epithelial cells; type: cell-based; conditions: captopril, lisinopril 500 ng/ml; caspase inhibitors 60 uM
# Procedure: as §1, §2
# Expression of FAS by alveolar epithelial cells is observed during bleomycin-induced fibrogenesis in mice. See Hagimoto, et al., Am. J. Respir. Cell Mol. Biol. 16:91-101 (1997). […] Apoptosis was detected by quantitation of fragmented nuclei (see above).
# Cell Culture and Detection of Apoptosis. The human lung adenocarcinoma cell line A549 was obtained from American Type Culture Collection and cultured in Ham's F12 medium supplemented with 10% fetal bovine serum (FBS). Primary alveolar epithelial cells were isolated from adult male Wistar rats as described earlier (Uhal, B. D., I. Joshi, A. True, S. Mundle, A. Raza, A. Pardo and M. Selman. Fibroblasts isolated after fibrotic lung injury induce apoptosis of alveolar epithelial cells in vitro. Am. J. Physiol. 269:L819-L828, 1995); Wang, R., A. Zagariya, 0. Ibarra-Sunga, C. […] Am. J. Physiol. 276:L885-L889 (1999)). […] All cells were seeded in 24-well or 6-well chambers, and all experiments were conducted at subconfluent densities of 80-90% in serum-free Ham's F12 medium. Test reagents were diluted with serum-free Ham's F12 medium and were applied under serum-free conditions for 20 hours at 37C. in a 5% CO2 incubator. Detection of apoptotic cells with propidium iodide (PI) was conducted as described above Am. J. Physiol. 275:L1013-1017 (1998); Uhal et al., following digestion of ethanol-fixed cells with DNAse-free RNAse in PBS containing 5 μg/ml PI. In all assays, detached cells were retained by centrifugation of the culture vessels during fixation with 70% ethanol, or by retention of culture media and recovery by centrifugation before assay.
# Apoptosis was detected by nuclear fragmentation as described above.
# [5] = test system: primary rat alveolar epithelial cells; assay: Apoptosis of rat AEC induced by human lung fibroblast-conditioned media; type: cell-based; conditions: saralasin 50 ug/ml, DEVD-fmk 60 uM, anti-ANGII IgG 1 ug/ml
# Text: Fibroblast Isolation, Culture and Preparation of Conditioned Media. Primary human lung fibroblasts were isolated at the National Institute of Respiratory Diseases, Mexico. […] Of these, “fibrotic” lung fibroblast strains (HIPF-X, where X=patient number) were derived from patients suffering from either of two different types of interstitial lung disease (ILD): Idiopathic Pulmonary Fibrosis (IPF) and Chronic Hypersensitivity Pneumonitis (CHP). In both diseases, patients had clinical, functional and radiologic features which fulfill the diagnostic criteria for an ILD. […] Briefly, all patients had progressive dyspnea, bilateral reticulonodular images on chest roentgenogram, restrictive lung functional impairment with decreased lung volumes and compliance, and hypoxemia at rest that worsened with exercise. […] Patients with IPF had neither antecedents of any occupational or environmental exposure nor other known cause of ILD. […] Biopsies lacked granulomas, vasculitis, microorganisms, and inorganic material by polarized light microscopy.
# Control fibroblasts were obtained from individuals having undergone a lobectomy for removal of a primary lung tumor. […] Lung fibroblasts from normal or fibrotic tissue were isolated by trypsin dispersion, and fibroblast strains were established in Dulbecco's modified Eagle's medium (or in Ham's F-12 medium) supplemented with 10% fetal calf serum, 200 U/ml penicillin, and 200 mg/ml streptomycin. […]
# Epithelial Cell Culture and Detection of Apoptosis. […] All epithelial cell preparations were greater than 90% pure as determined by acridine orange uptake into lamellar bodies. […] Epithelial cell apoptosis was detected by the assessment, under fluorescence microscopy, of chromatin condensation and nuclear fragmentation within cytokeratin-positive cells after ethanol fixation and staining with propidium iodide. […]
# The percentage increase in rat AEC apoptosis was determined by propidium iodide assay of primary alveolar epithelial cells exposed to serum-free conditioned media, see Uhal et al., Am.
compound,measurement,setting,value
COc1ccc2c(c[n+](C)c3c4cc5c(cc4ccc23)OCO5)c1OC [chelerythrine],inhibition of amiodarone-induced apoptosis,primary rat AEC [1],significantly inhibited
same,inhibition of ANGII-induced apoptosis of primary rat AEC,primary rat AEC [2],significantly inhibited
[Na+].[Na+].[Na+].[O]=[V]([O-])([O-])[O-] [sodium orthovanadate],inhibition of amiodarone-induced apoptosis,primary rat AEC [1],not
bleomycin sulfate,increase in alveolar septal collagen (picrosirius red),adult male Wistar rats,100%
same,increase in peribronchial collagen (picrosirius red),adult male Wistar rats,133%
same,concentration at which induction of apoptosis was statistically significant,[3]; 20 h,5 µM
Tyr-Val-Ala-Asp-[O-Me]-CH2Cl (YVAD(OMe)-CH2Cl; not fully specified; printed as Tyr-Val-Ala-Asp-[O-Me]-CH2Cl) [YVAD-cmk],inhibition of Fas ligand-induced apoptosis of primary rat AEC (words),primary rat AEC [4],comparable efficacy to inhibit apoptosis
Asp-Glu-Val-Asp-[O-Me]-CH2F (DEVD(OMe)-CH2F; not fully specified; printed as Asp-Glu-Val-Asp-[O-Me]-CH2F) [DEVD-fmk],inhibition of apoptosis induced by HIPF-conditioned media,[5],completely abrogated
same,inhibition of Fas ligand-induced apoptosis of primary rat AEC (words),primary rat AEC [4],comparable efficacy to inhibit apoptosis
O=C(O)C1=CC(=C(c2ccc(O)c(C(=O)O)c2)c2ccc(O)c(C(=O)O)c2)C=CC1=O [aurintricarboxylic acid],inhibition at 10 µM,"[3]; Rattus norvegicus, Epithelial cell, read-out: inhibition of bleomycin-induced apoptosis of AEC in vitro",59%
